Results: EP2112152A1, “Dihydropteridinones as Plk Inhibitors” (GPC Biotech AG, priority 2008, dated 2009)

Assays:
[1] = system: Abl, Akt1, Aur A, c-Kit, c-Raf, Cdk1/CycB, Chk1, FGFR3, Flt3, Fyn, IGF1-R, INSR, Lyn, MAPK-ERK1, p38a, PAK4, PKCalpha, Ret, ROCK2, RSK 1, c-Src, TIE2, and …; assay: Selectivity panel (Proteros), 23 other kinases; type: biochemical; details: tested at 1 mM in triplicates; each of the 23 other kinases
Method: Selected compound of the present invention were tested in a standard selectivity panel including Plk1 and 23 other kinases (Proteros biostructures GmbH, Martinsried/Munich, Germany), under conditions of non-disclosure, non-dissemination and non-use.
In brief, compounds 1, 13, 14, and 25 (see Table 1) were tested at 1 mM in triplicates against Plk1 as well as against Abl, Akt1, Aur A, c-Kit, c-Raf, Cdk1/CycB, Chk1, FGFR3, Flt3, Fyn, IGF1-R, INSR, Lyn, MAPK-ERK1, p38a, PAK4, PKCalpha, Ret, ROCK2, RSK 1, c-Src, TIE2, and VEGF-R2.

HCT 116 = assay: SRB cell proliferation assay, HCT 116; type: cell-based; details: Homo sapiens, HCT-116, 72 h, 72 hours, SRB assay; read-out: CELLULAR IC50 HCT 116
Method: (§1) We observed the surprising finding that compounds of the invention were useful in inhibiting proliferation of tumor cell lines (see Table 3).
(§2) Cells were exposed to the test compounds at various concentrations appropriate to determine an IC50 for 72 hours. Cell proliferation was measured using the SRB assay according to Shekan et al (J Natl Cancer Inst (1990) 82, 1107-112) in order to estimate the IC50 values shown in Table 3. Briefly, cells were plated in 96 well dishes 24 hours prior to compound addition at the densities specified in Table 5.1. The assay was terminated with the addition of cold TCA to a final concentration of 10% after growth medium has been removed and the plates were incubated over night at 4°C. The plates were then washed 5 times with water and 100µl of a Sulforhodamine B solution (4%) was added to each well. The plates were then incubated for 10 minutes at room temperature before removal of unbound dye by washing with 1% acetic acid. The bound dye was solubilised with 10 mM Trizma base and the absorbance read at OD520.
(§3) Inhibitory activity of the compounds (IC) was calculated as % inhibition of cell proliferation compared to cells treated with the solvent (DMSO).
(§4) Table 8.1: 18-Cell Line Panel

HT-29 = assay: SRB cell proliferation assay, HT-29; type: cell-based; details: Homo sapiens, HT-29, 72 h, 72 hours, SRB assay; read-out: CELLULAR IC50 HT-29
Method: as §1, §2, §3, §4

IMR-90 = assay: SRB cell proliferation assay, IMR-90; type: cell-based; details: Homo sapiens, 72 hours, SRB assay, slow cycling cell line, read-out: CELLULAR IC50 IMR-90
Method: as §1, §2, §3, §4

Plk1 = Plk1 (Homo sapiens, UniProt P53350); assay: Cellular Plk1 kinase activity: nucleophosmin (B23) Ser4 phosphorylation in HCT116 cells (MSD electrochemiluminescence); type: cell-based; design: host or cells: HCT116; details: 100 ng/ml nocodazole, 4 hours after compound addition, read-out: Biochemical IC50 Nucleophosmin assay
Method: We observed the surprising finding that compounds of the invention were able to penetrate cell membranes and retained their activity as Plk1 inhibitors against native Plk1 expressed within living cancer cells.
Cellular Plk1 kinase activity was measured by quantification of nucleophosmin (B23) Ser4 phosphorylation in a cancer cell line. Nucleophosmin (B23) Ser4 is phosphorylated by Plk1, and this phosphorylation can be specifically detected by cross-reactivity of a phospho-Mek1/2 antibody that is able to recognizes a mitotic-specific phosphorylated form of nucleophosmin (B23) in a nocodazole dependent way (Zhang, H., Shi, X., Paddon, H., Hampong, M., Dai, W., and Pelech, S. (2004) B23/Nuleophosmin Serin 4 Phosphorylation Mediates Mitotic Functions of Polo-like Kinase 1. J. Biol. Chem., 279(34), 35726-35734).
Briefly, HCT116 cells (ATCC, Order No. CCL-247) were plated in 96 well dishes 24 hours prior to nocodazole treatment at 25 000 cells per well. Cells were then treated with 100 ng/ml nocodazole (Sigma-Aldrich, # M1404). 20 hours after nocodazole treatment, cells were exposed to the test compounds at various concentrations appropriate to determine an IC50. 4 hours after compound addition, medium was carefully removed and 120 µl of Complete Tris Lysis Buffer (R60TX; MSD, Gaithersburg MD) was added to each well. Samples were then stored at -20°C.
The level of nucleophosmin (B23) Ser4 phosphorylation in these cell lysis samples was estimated by electrochemiluminescence detection using the Meso Scale Discovery ("MSD") Technology Platform (MSD, Gaithersburg MD). The protocol used was as recommended by the manufacturer with the use of a phospho-Mek1/2 antibody (Cell Signalling, #9121) as primary antibody, and is as follows.
The cell lysates were thawed at room temperature and 40 µl were incubated on 96-well MULTI-ARRAY High Bind plates (L11XB; MSD) for 1.5 - 2 hours at room temperature. The supernatants were then removed and 150 µl of a 5% (w/v) solution of Blocker A (R93AA; MSD) in Tris Wash Buffer (R61TX; MSD) were added to each well. The plates were then incubated for 1 hour at room temperature before removal of the Blocker A solution and washed 4 times with 200 µl Tris Wash Buffer. 25 µl primary antibody (anti-phospho-MEK1/2, Cell Signalling, #9121, rabbit polyclonal), diluted 1:250 in a 1% (w/v) solution of Blocker A in Tris Wash Buffer, were added to each well. The plates were then incubated for 1 hour at room temperature before removal of the antibody solution and washed 4 times with 200 µl Tris Wash Buffer. Then, 25 µl of labelled secondary antibody (SULFO-TAG Goat Anti-Rabbit IgGAntibody (R32AB; MSD), diluted 1:500 in a 1% (w/v) solution of Blocker A in Tris Wash Buffer) were added to each well. The plates were then incubated for 1 hour at room temperature before removal of the antibody solution and washed 4 times with 200 µl Tris Wash Buffer. Then, […] of 1x Read Buffer T (R92TC; MSD) were carefully added to each well and the plates were quantitatively detected for each well with a SECTOR™ Imager 6000 (MSD).
Inhibitory activity of the compounds (IC) was calculated as % inhibition of nucleophosmin (B23) Ser4 phosphorylation compared to cells not treated with nocodazole.

Plk1, sequence (P53350 whole entry, species assumed): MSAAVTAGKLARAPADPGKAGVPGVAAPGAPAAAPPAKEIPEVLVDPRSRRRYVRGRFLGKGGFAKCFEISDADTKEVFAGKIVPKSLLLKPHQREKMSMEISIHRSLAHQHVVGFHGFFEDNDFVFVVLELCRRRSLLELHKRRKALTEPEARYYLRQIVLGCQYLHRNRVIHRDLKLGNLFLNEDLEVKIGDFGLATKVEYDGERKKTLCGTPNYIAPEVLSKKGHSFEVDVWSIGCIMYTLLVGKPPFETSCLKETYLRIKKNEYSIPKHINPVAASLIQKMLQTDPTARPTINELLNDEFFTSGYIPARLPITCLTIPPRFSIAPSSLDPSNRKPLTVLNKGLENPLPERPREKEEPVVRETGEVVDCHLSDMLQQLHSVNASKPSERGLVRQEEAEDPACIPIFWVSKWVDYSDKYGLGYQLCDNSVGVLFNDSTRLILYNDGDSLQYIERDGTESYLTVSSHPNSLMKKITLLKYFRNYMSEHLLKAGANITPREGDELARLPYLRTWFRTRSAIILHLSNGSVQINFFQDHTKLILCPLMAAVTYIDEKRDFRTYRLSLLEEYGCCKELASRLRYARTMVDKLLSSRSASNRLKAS

SMILES	all other kinases were inhibited [1]	IC50 (HCT 116) [µM]	IC50 (HT-29) [µM]	IC50 (IMR-90) [µM]	IC50 (Plk1) [µM]
CCC1C(=O)N(C)c2cnc(Nc3ccc(C(=O)NC4CCN(C5CCN(Cc6ccccc6)CC5)CC4)cc3OC)nc2N1N(C)C (centres unmarked) [Compound 14, N-(1'-Benzyl-[1,4']bipiperidinyl-4-yl)-4-(8-dimethylamino-7-ethyl-5-methyl-6-oxo-5,6,7,8-tetrahydro-pteridin-2-ylamino)-3-methoxy-benzamide]	less than 10%	< 1	< 1	> 1	< 0.1
CCC1C(=O)N(C)c2cnc(Nc3ccc(C(=O)NC4CCN(C)CC4)cc3OC)nc2N1N(C)CC (centres unmarked) [Compound 25, 4-[7-Ethyl-8-(ethyl-methyl-amino)-5-methyl-6-oxo-5,6,7,8-tetrahydro-pteridin-2-ylamino]-3-methoxy-N-(1-methyl-piperidin-4-yl)-benzamide]	less than 10%	< 1	< 1	> 1	< 0.1
CCC1C(=O)N(C)c2cnc(Nc3ccc(C(=O)NCCN4CCCC4)cc3OC)nc2N1N(C)C (centres unmarked) [Compound 2, 4-(8-Dimethylamino-7-ethyl-5-methyl-6-oxo-5,6,7,8-tetrahydro-pteridin-2-ylamino)-3-methoxy-N-(2-pyrrolidin-1-yl-ethyl)-benzamide]	–	< 1	< 1	> 1	< 0.1
CCC1C(=O)N(C)c2cnc(Nc3ccc(C(=O)NC4CCN(C)CC4)cc3OC)nc2N1N(C)C (single isomer, unassigned) [Compound 36, 4-(8-dimethylamino-7-ethyl-5-methyl-6-oxo-5,6,7,8-tetrahydro-pteridin-2-ylamino)-3-methoxy-N-(1-methyl-piperidin-4-yl)-benzamide]	–	> 1	> 1	> 1	> 1
CCC1C(=O)N(C)c2cnc(Nc3ccc(C(=O)NC4CCN(C)CC4)cc3OC)nc2N1N(C)CC1CC1 (centres unmarked) [Compound 17, 4-[8-(Cyclopropylmethyl-methyl-amino)-7-ethyl-5-methyl-6-oxo-5,6,7,8-tetrahydro-pteridin-2-ylamino]-3-methoxy-N-(1-methyl-piperidin-4-yl)-benzamide]	–	< 1	< 1	> 1	< 0.5
CCC1C(=O)N(C)c2cnc(Nc3ccc(C(=O)NCC4CCN(CC)CC4)cc3OC)nc2N1N(C)Cc1ccccc1 (centres unmarked) [Compound 21, 4-[8-(Benzyl-methyl-amino)-7-ethyl-5-methyl-6-oxo-5,6,7,8-tetrahydro-pteridin-2-ylamino]-N-(1-ethyl-piperidin-4-ylmethyl)-3-methoxy-benzamide]	–	< 1	< 1	> 1	< 0.5
CCC1C(=O)N(C)c2cnc(Nc3ccc(C(=O)NC4CCN(C)CC4)cc3OC)nc2N1N(C)CC1CCCC1 (centres unmarked) [Compound 27, 4-[8-(Cyclopentylmethyl-methyl-amino)-7-ethyl-5-methyl-6-oxo-5,6,7,8-tetrahydro-pteridin-2-ylamino]-3-methoxy-N-(1-methyl-piperidin-4-yl)-benzamide]	–	< 1	< 1	> 1	< 0.1
CCC1C(=O)N(C)c2cnc(Nc3ccc(C(=O)N[C@H]4CC[C@H](N5CCN(CC6CC6)CC5)CC4)cc3OC)nc2N1N(C)CC (relative stereo) [Compound 26, N-[trans-4-(4-Cyclopropylmethyl-piperazin-1-yl)-cyclohexyl]-4-[7-ethyl-8-(ethyl-methyl-amino)-5-methyl-6-oxo-5,6,7,8-tetrahydro-pteridin-2-ylamino]-3-methoxy-benzamide]	–	< 1	< 1	> 1	< 0.1
CCCN(C)N1c2nc(Nc3ccc(C(=O)N[C@H]4CC[C@H](N5CCN(CC6CC6)CC5)CC4)cc3OC)ncc2N(C)C(=O)C1CC (relative stereo) [Compound 19, N-[trans-4-(4-Cyclopropylmethyl-piperazin-1-yl)-cyclohexyl]-4-[7-ethyl-5-methyl-8-(methyl-propyl-amino)-6-oxo-5,6,7,8-tetrahydro-pteridin-2-ylamino]-3-methoxy-benzamide]	–	< 1	< 1	> 1	< 0.1
